Results from PubChem BioAssay AID2060604 (Molecular Pharmacology Branch, DTP, NCI, 2025).

System: 379773-124-R-J2-PDC complex spheroids, viability % test/control
Test: Anticancer human tumor 379773-124-R-J2-PDC patient-derived endometrial carcinoma cell line growth inhibition [CLK]
Conditions: for IC50: curve of first compound; for viability, T/C: stronger effect = lower value
Method in brief: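 Multi-cell-type spheroids combined patient-derived tumor cells with HUVEC endothelial cells and human mesenchymal stem cells. Paired agents were dosed in half-log steps down from about clinical Cmax, or from 10 microM where Cmax was unknown.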

[1] = second compound 0.0316 µM, first compound 0.0316 µM
[2] = second compound 0.0316 µM, first compound 0.1 µM
[3] = second compound 0.0316 µM, first compound 0.316 µM
[4] = second compound 0.0316 µM, first compound 1 µM
[5] = second compound 0.0316 µM, first compound 3.16 µM
[6] = second compound 0.0316 µM, first compound 10 µM
[7] = second compound 0.1 µM, first compound 0.0316 µM
[8] = second compound 0.1 µM, first compound 0.1 µM
[9] = second compound 0.1 µM, first compound 0.316 µM
[10] = second compound 0.1 µM, first compound 1 µM
[11] = second compound 0.1 µM, first compound 3.16 µM
[12] = second compound 0.1 µM, first compound 10 µM
[13] = second compound 0.316 µM, first compound 0.0316 µM
[14] = second compound 0.316 µM, first compound 0.1 µM
[15] = second compound 0.316 µM, first compound 0.316 µM
[16] = second compound 0.316 µM, first compound 1 µM
[17] = second compound 0.316 µM, first compound 3.16 µM
[18] = second compound 0.316 µM, first compound 10 µM
[19] = second compound 1 µM, first compound 0.0316 µM
[20] = second compound 1 µM, first compound 0.1 µM
[21] = second compound 1 µM, first compound 0.316 µM
[22] = second compound 1 µM, first compound 1 µM
[23] = second compound 1 µM, first compound 3.16 µM
[24] = second compound 1 µM, first compound 10 µM
[25] = second compound 3.16 µM, first compound 0.0316 µM
[26] = second compound 3.16 µM, first compound 0.1 µM
[27] = second compound 3.16 µM, first compound 0.316 µM
[28] = second compound 3.16 µM, first compound 1 µM
[29] = second compound 3.16 µM, first compound 3.16 µM
[30] = second compound 3.16 µM, first compound 10 µM
[31] = second compound 10 µM, first compound 0.0316 µM
[32] = second compound 10 µM, first compound 0.1 µM
[33] = second compound 10 µM, first compound 0.316 µM
[34] = second compound 10 µM, first compound 1 µM
[35] = second compound 10 µM, first compound 3.16 µM
[36] = second compound 10 µM, first compound 10 µM
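Note: compound exposure lasted seven days before the viability readout.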
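Throughout, for viability, T/C: 100% = DMSO vehicle control wells.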

With `C#Cc1c(F)ccc2cc(O)cc(-c3ncc4c(N5CC6CCC(C5)N6)nc(OCC56CCCN5CC(F)C6)nc4c3F)c12` (centres undefined) + CNC(=O)c1ccc(Nc2nc(OC3CCCC3)c3c(-c4ccc5nc(C)oc5c4)c[nH]c3n2)c(OC)c1 the IC50 (second compound 0.0316 µM) was > 10000 nM, the IC50 (second compound 0.1 µM) was < 31.6 nM and the IC50 (second compound 0.316 µM) was < 31.6 nM. The IC50 (second compound 1 µM) was < 31.6 nM, the IC50 (second compound 3.16 µM) was < 31.6 nM and the IC50 (second compound 10 µM) was < 31.6 nM. For the same compound, the viability, T/C [1] was 73.2%, the viability, T/C [2] was 65% and the viability, T/C [3] was 72.9%. It also gave a viability, T/C [4] of 79.1%, a viability, T/C [5] of 71.3% and a viability, T/C [6] of 62%. For the same compound, the viability, T/C [7] was 41.2%, the viability, T/C [8] was 39% and the viability, T/C [9] was 38.3%. The viability, T/C [10] was 32.4%, the viability, T/C [11] was 32.2% and the viability, T/C [12] was 36%. It also gave a viability, T/C [13] of 41%, a viability, T/C [14] of 33.1% and a viability, T/C [15] of 39%. For the same compound, the viability, T/C [16] was 37.1%, the viability, T/C [17] was 33.4% and the viability, T/C [18] was 28.4%. The viability, T/C [19] was 38.8%, the viability, T/C [20] was 33% and the viability, T/C [21] was 25.8%. It also gave a viability, T/C [22] of 29.1%, a viability, T/C [23] of 33.1% and a viability, T/C [24] of 29%. The viability, T/C [25] was 31.9%, the viability, T/C [26] was 27.4% and the viability, T/C [27] was 28.3%. The viability, T/C [28] was 31.4%, the viability, T/C [29] was 28% and the viability, T/C [30] was 23.2%. It also gave a viability, T/C [31] of 32.7%, a viability, T/C [32] of 27.1% and a viability, T/C [33] of 28%. The viability, T/C [34] was 27.1%, the viability, T/C [35] was 27.4% and the viability, T/C [36] was 27.1%.
In the case of `C=C(F)C(=O)N1CCN(c2nc(OCC3CCCN3C)nc3c2CCN(c2cccc4cccc(Cl)c24)C3)CC1CC#N` (centres undefined) + CNC(=O)c1ccc(Nc2nc(OC3CCCC3)c3c(-c4ccc5nc(C)oc5c4)c[nH]c3n2)c(OC)c1, the IC50 (second compound 0.0316 µM) is reported as 2020 nM, the IC50 (second compound 0.1 µM) is reported as < 31.6 nM and the IC50 (second compound 0.316 µM) is reported as < 31.6 nM. For the same compound, the IC50 (second compound 1 µM) was < 31.6 nM, the IC50 (second compound 3.16 µM) was < 31.6 nM and the IC50 (second compound 10 µM) was < 31.6 nM. The viability, T/C [1] was 69.1%, the viability, T/C [2] was 63.1% and the viability, T/C [3] was 72.3%. It also gave a viability, T/C [4] of 78%, a viability, T/C [5] of 36.7% and a viability, T/C [6] of 0.16%. The viability, T/C [7] was 35.7%, the viability, T/C [8] was 42.1% and the viability, T/C [9] was 42.7%. For the same compound, the viability, T/C [10] was 39.8%, the viability, T/C [11] was 26.7% and the viability, T/C [12] was 0.13%. For the same compound, the viability, T/C [13] was 37.1%, the viability, T/C [14] was 41.4% and the viability, T/C [15] was 32.4%. The viability, T/C [16] was 39%, the viability, T/C [17] was 16.2% and the viability, T/C [18] was 0.17%. It also gave a viability, T/C [19] of 25.5%, a viability, T/C [20] of 31.4% and a viability, T/C [21] of 34.9%. It also gave a viability, T/C [22] of 34.5%, a viability, T/C [23] of 10.4% and a viability, T/C [24] of 0.13%. The viability, T/C [25] was 30.2%, the viability, T/C [26] was 35.3% and the viability, T/C [27] was 35.7%. For the same compound, the viability, T/C [28] was 35%, the viability, T/C [29] was 14.3% and the viability, T/C [30] was 2.42%. The viability, T/C [31] was 31.6%, the viability, T/C [32] was 32.9% and the viability, T/C [33] was 27.7%. The viability, T/C [34] was 27.3%, the viability, T/C [35] was 9.27% and the viability, T/C [36] was 0.53%.
